The values that follow come from US9518085B2, “Compounds and pharmaceutical combinations for the treatment of neurodegenerative and ischemic brain diseases” (CENTRO DE INGENIERÍA GENÉTICA Y BIOTECHNOLOGÍA, priority 2011, dated 2016).

No end group written: not given here.

For assay [1], the system named is brain I/R model in Mongolian gerbils. The experiment in a line: Brain infarct volume in the bilateral ischemia-reperfusion (I/R) model, transient CCA occlusion. The class given is in vivo. Particulars: 24 h after 10 min CCA occlusion, PCB 750 μg/Kg ip, PCB-aa 3.375 mg/kg, alone or combined. How it is done: The animals were treated with saline solution or with an accumulative dose of the PCB-aa peptides (3.375 mg/kg of each one), by intraperitoneal route for 30 min, 3, 6 and 12 h after the ischemic event.
The effectiveness percentage of each treatment was calculated according to the following formula: effectiveness %=(1−Vi/VI/R)×100. Vi: infarct volume of the ischemic group treated with the corresponding product; VI/R: volume of the infarct of the ischemic group treated with saline solution.
The percentage of effectiveness was calculated as described in Example 3.
The animals were treated with a saline solution (through the intraperitoneal route) or with an accumulative dose of PCB (750 μg/Kg, by the intraperitoneal route), PCB-aa (peptide 4) 3.375 mg/kg, EPO (500 U/Kg, through the intraperitoneal route), asyaloEPO (200 U/Kg, through the nasal route) or with PCB/EPO or PCB-aa (peptide 4)/EPO, PCB/asyaloEPO and PCB-aa ([…])/asyaloEPO (maintaining the dose and the corresponding administration route) for 30 min, 3, 6 and 12 h after the ischemic event.
The evaluation of the therapeutic effect of the combinations and their independent components was carried out. The percentage of effectiveness of each treatment was calculated as described in Example 3.

The subject of assay [2] is hippocampus (C2, CA3, CA4 regions) of Mongolian gerbils, I/R model. The experiment in a line: Morphometric evaluation, bilateral hippocampal cell count after transient CCA occlusion. The class given is in vivo. Particulars: 750 μg/Kg ip, GHRP-6 6.25 μg/kg ip, alone or combined; 30 min, 3, 6, 12 h after ischemic event. As to the method: FIG. 8. Morphometric evaluation of the therapeutic effect with PCB-aa (peptide 3), the GHRP-6 peptide, or its combination in Mongolian gerbils submitted to transient (10 min) occlusion of CCA. A: representative images (4× magnification) of the left hippocampus of animals that underwent fake surgery (sham), or treated with saline solution, or with PCB-aa (peptide 3) and GHRP-6 (6.25 μg/kg, intraperitoneal route), or with PCB-aa (peptide 3)/GHRP-6 (maintaining the corresponding doses and administration routes) for 30 min, 3, 6 and 12 h after the ischemic event. B: bilateral cell count performed in the C2, CA3 and CA4 regions of both hippocampi for each experimental group. Different letters indicate significant differences with respect to the I/R+saline group, *p<0.05. The values presented in the graphs are means±MSE
The morphometric evaluations of the therapeutic treatment with PCB-aa (peptide 3), the GHRP-6 peptide or its combinations were tested in Mongolian gerbils submitted to transient (10 min) CCAs occlusion. Accumulative doses of PCB-aa (peptide 3) (750 μg/Kg, by intraperitoneal route), GHRP-6 (6.25 μg/kg, intraperitoneal route), or with PCB-aa (peptide 3)/GHRP-6 (maintaining the corresponding dose and administration route) for 30 min, 3, 6 and 12 h after the ischemic event were evaluated. The bilateral cell count was performed in the C2, CA3 and CA4 regions for each experimental group and it was expressed in percentage with respect to the sham (negative or fake surgery) group.

In assay [3] the test system is experimental autoinmune encephalomyelitis (EAE) model. The assay can be described thus: EAE model, prophylactic schedule, clinical index. The format is in vivo, C57BL6 mice. Conditions: PCB-aa 3.375 mg/Kg, PCB 750 μg/Kg, alone or combined. How it is done:
(§1) In the prophylactic schedule the treatment was performed 15 days before EAE induction and in the therapeutic schedule starting from the beginning of the clinical signs.

A further assay deals with PC12 cell line. The experiment in a line: Neuroprotector effect against Sodium glutamate induced damage in PC12 cells (MTT cell viability). The format is cell-based. Conditions: for concentration needed to attain cell viability similar to C-Phyco: PC12, 24 h pretreatment, 4 h co-incubation with Sodium glutamate, MTT; for cells protected from the damage: Sodium glutamate damage, PC12. How it is done: FIG. 2. In vitro study of the neuroprotector effect of C-Phycocyanin (C-Phyco) (A) and of PCB and PCB-aa (B) against the Sodium glutamate (50 mM) induced damage in the neuronal line PC12. The symbols indicate the presence (+), absence (−) or concentrations of the respective compounds in the culture medium. Different letters indicate statistically significant difference, according to ANOVA followed by the Newman-Keuls multiple comparison test, p<0.05. The values presented in the graphs are the means±standard error of the mean (MSE).
PC12 cells (1.5×10^4 cells/well) were pretreated with C-Phyco (25, 50 μM) or PCB (0.5; 1; 5 μM) or PCB-aa (0.25; 1; 2 μM), during 24 h, and then submitted to co-incubation with […] Sodium glutamate together with the corresponding product (different doses) for 4 h.

Assay [4] concerns culture of brain granulous cells. Conditions: 1-3 mg/mL, absence of potassium and serum for 24 h; cited from earlier work.
The target in a further assay is T1, COX-2 (Homo sapiens, UniProt P35354).
T1 sequence (P35354 18-604): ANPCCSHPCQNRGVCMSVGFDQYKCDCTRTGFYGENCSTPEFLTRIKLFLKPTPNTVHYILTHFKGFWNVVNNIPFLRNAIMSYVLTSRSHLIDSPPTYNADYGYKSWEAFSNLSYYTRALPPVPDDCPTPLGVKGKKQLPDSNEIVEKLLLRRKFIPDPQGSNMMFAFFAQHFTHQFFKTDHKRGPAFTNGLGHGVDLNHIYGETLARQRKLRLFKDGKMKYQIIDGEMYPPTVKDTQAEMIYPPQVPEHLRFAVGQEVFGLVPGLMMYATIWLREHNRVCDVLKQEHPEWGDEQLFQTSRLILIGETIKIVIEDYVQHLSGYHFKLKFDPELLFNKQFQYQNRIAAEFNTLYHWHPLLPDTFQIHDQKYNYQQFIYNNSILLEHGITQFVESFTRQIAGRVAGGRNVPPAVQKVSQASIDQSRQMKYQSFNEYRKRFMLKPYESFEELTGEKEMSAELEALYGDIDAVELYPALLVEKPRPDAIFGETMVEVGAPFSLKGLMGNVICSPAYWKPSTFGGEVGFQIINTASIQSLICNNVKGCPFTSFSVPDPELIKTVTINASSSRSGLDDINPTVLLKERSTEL
Conditions: isolated enzyme; complete blood assay; cited from earlier work.

The test system of assay [5] is swollen paw models in mice and rats. Conditions: oral route, 100-200 mg/kg; cited from earlier work.
Assay [6] concerns model of brain damage in rats induced by kainic acid. Conditions: one 100 mg/kg dose; cited from earlier work.
A further assay has as its system EAE model. The experiment in a line: EAE model, therapeutic schedule, clinical course (area under the curve). The class given is in vivo, C57BL6 mice. Particulars: PCB 750 μg/kg ip, PCB-aa 3.375 mg/kg ip daily 15 days, IFN-b 500 ng/Kg sc 6 doses, alone or combined. As to the method: The percentage of effectiveness of each treatment was calculated according to the following formula: % of effectiveness=(1−ACi/ACEAE)×100. ACi: area under the curve of the group treated with the corresponding product; ACEAE: area under the curve of the EAE group.
as §1

Setting [7] is: EPO 500 U/Kg ip, asyaloEPO 200 U/Kg nasal.
The mark [8] stands for this setting: IFN-a/IFN-b 500 ng/Kg sc, 30 min, 3, 6, 12 h after ischemic event.

“^82BLR^84 (Cys(phycocyanobilin)-Leu-Arg; listed as Spirulina platensis) [PCB-aa (peptide 4), chromogenic peptide of β-C-Phyco]”: the “effectiveness, reduction of brain infarct volume” value (“effectiveness, reduction” below) in [1] (setting [7]) worked out at 49.2%.
“^84BAR^86 (Cys(phycocyanobilin)-Ala-Arg; listed as Spirulina platensis) [PCB-aa (peptide 2), chromogenic peptide of α-C-Phyco]”: the “effectiveness, reduction” value in [1] (IL-2 100 ng/Kg sc) was determined as 49.2%.
As for “^80AABLR^84 (AAC(phycocyanobilin)LR; listed as Spirulina platensis) [PCB-aa (peptide 3), chromogenic peptide of β-C-Phyco]”, in [2], the “effectiveness, bilateral hippocampal cell count” value is listed as 35.8%.
With “^79MAABLR^84 (MAAC(phycocyanobilin)LR; listed as Spirulina platensis) [PCB-aa (peptide 1), chromogenic peptide of β-C-Phyco]”, in [3] (Table 1, IFN-a 500 ng/Kg), the “Clinical score (Mean ± SD)” value is recorded as 1.23 ± 1.1, the “Days of the disease” value turned out to be 7.2 ± 0.3 days, the “Incidence (%)” value amounted to 75% and the “Starting Day (Mean ± SD)” value came out at 9.5 ± 0.2. For the same substance, in assay [3] (Table 2, IFN-b 500 ng/Kg), the “Clinical score (Mean ± SD)” value was 1.23 ± 1.1, the “Days of the disease” value is 7.2 ± 0.3 days, the “Incidence (%)” value is given as 70% and the “Starting day (Mean ± DS)” value is given as 9.5 ± 0.2. In addition, in assay [1] (setting [8]), the “effectiveness, reduction” value is 49.2%. Further, the “concentration needed to attain cell viability similar to C-Phyco” value in the assay on PC12 cell line is recorded as “even lower”.
As for C-Phycocyanin, the neuron death result in assay [4] is on record as “prevents neuron death”. In the assay on PC12 cell line (50 μM C-Phyco), the “cells protected from the damage” value is on record as “around 75%”. The COX-2 inhibition entry on COX-2 is “inhibits COX-2”. Moreover, the edema entry in assay [5] is recorded as “able to reduce edemas”. In addition, the “signs and alterations versus untreated control group” value in assay [6] was “reduced the signs”.
In the case of Phycocyanobilin [PCB], in [3] (Table 1, IFN-a 500 ng/Kg), the “Clinical score (Mean ± SD)” value is given as 1.37 ± 1.7, the “Days of the disease” value turned out to be 8.5 ± 0.1 days, the “Incidence (%)” value stood at 70% and the “Starting Day (Mean ± SD)” value came to 10.5 ± 0.5. In assay [3] (Table 2, IFN-b 500 ng/Kg), the “Clinical score (Mean ± SD)” value is 1.55 ± 0.3, the “Days of the disease” value amounted to 7.3 ± 0.4 days, the “Incidence (%)” value is reported as 60% and the “Starting day (Mean ± DS)” value amounted to 12.3 ± 0.1. Also, the “% of effectiveness (area under the curve of clinical index)” value in the assay on EAE model is 46.1%. The “effectiveness, reduction” value in [1] (setting [7]) was determined as 43.1%. The “effectiveness, reduction” value in assay [1] (setting [8]) stood at 43.1%. In [1] (IL-2 100 ng/Kg sc), the “effectiveness, reduction” value is reported as 43.1%. The “cells protected from the damage” value in the assay on PC12 cell line (5 μM PCB) was 100%. Besides, the “concentration needed to attain cell viability similar to C-Phyco” value with PC12 cell line was “lower concentrations”. Besides, the “protective molar concentration, times lower than C-Phyco” value in the assay with PC12 cell line (PC12, Sodium glutamate damage) was determined as 10 times. Moreover, in assay [2], the “effectiveness, bilateral hippocampal cell count” value is listed as 35.8%.
On to GHRP-6 [reference compound], for which the “effectiveness, bilateral hippocampal cell count” value in assay [2] is given as 36.1%.
